The target of one data set is TphC.4. The data set is described as follows: Isothermal titration calorimetry of the purified protein with its cognate ligand at 25 °C in SEC running buffer (25 mM sodium phosphate, 500 mM NaCl, pH 7.4), fitted with a one-site binding model. As to conditions: SD, n = 3. As to the method: (§1) Ligands were dissolved in the specific buffer that was used in the size-exclusion chromatography (SEC) run of each protein purification (stored at −20 °C and thawed on the day of use). All protein and ligand samples were degassed and the temperature equilibrated to 25 °C for at least 10 min using a degassing station (TA Instruments). 400 μL of protein samples was loaded into the sample cell of a low volume AffinityITC machine with gold cell (TA Instruments) and ligand solutions were added into the injection syringe (protein and ligand concentrations can be found in Table S5). ITC measurements were performed at 25 °C with 20 injections of 2.5 μL (one initial injection of 0.5 μL was excluded from analysis), an adaptive injection interval, and stirring rate of 125 rpm. Subtractions of constant heat of dilution values for each ligand, peak integration, and fitting with a one-site binding model were done with NanoAnalyze (TA Instruments). The reported errors reflect the standard deviation of three technical replicas.

The next data set concerns the target TphC.1. The data set is described as above. As to conditions: SD, n = 3. The method, then:
as §1

For a further data set, the target named is TphC.2. The description is as above. As to conditions: SD, n = 3. The method, then: as §1
The target in another data set is TphC.3. The description is as above. As to conditions: SD, n = 3. As to the method: as §1
A further data set addresses TphC.0. Described as above. As to conditions: SD, n = 3. The method, then: as §1
The target in another data set is LAO.2. Described as above. As to conditions: SD, n = 3. The method, then:
as §1

Another data set deals with LAO.1. Described as above. As to conditions: SD, n = 3. As to the method:
as §1

A further data set addresses LAO.3. The description is as above. As to conditions: SD, n = 3. As to the method:
as §1

Another data set deals with T1, LAO.0 (Salmonella enterica, UniProt P02911).
T1 construct: gene argT
The data set is described as above. As to conditions: SD, n = 3. As to the method:
as §1

The target of a further data set is LAO.4. The data set is described as above. As to conditions: SD, n = 3. As to the method:
as §1

In a further data set the target is PotF.4. As to conditions: SD, n = 3. The method, then:
as §1

The target of a further data set is PotF.2. As to conditions: SD, n = 3. As to the method: as §1
In a further data set the target is PotF.0 (Escherichia coli, UniProt P31133). The data set is described as follows: Isothermal titration calorimetry of the purified protein with its cognate ligand at 25 °C in SEC running buffer (25 mM sodium phosphate, 500 mM NaCl, pH 7.4), fitted with a one-site binding model. As to conditions: SD, n = 3. As to the method:
as §1
(In ITC the heat of successive injections is recorded.)

Another data set concerns the target PotF.1 (Escherichia coli, UniProt P31133, A203P/A327P/A339P/E108N/E331D/F129Y/F266Y/F313Y/K122Q/K202N/M131I/N154D/S178A/S252A/S265A/S267T/S326N/T322L/V186I/V264I/V305M/V46I). The data set is described as above. As to conditions: SD, n = 3. The method, then:
as §1

Another data set deals with PotF.3 (Escherichia coli, UniProt P31133, A339P/E108N/E331D/F129Y/F266Y/K202N/N154D/S178A/S252A/S265A/T94S/V186I). The description is as above. As to conditions: SD, n = 3. As to the method: as §1
The target in the next data set is MBP.1. The description is as above. As to conditions: SD, n = 3. As to the method: as §1
Another data set deals with MBP.4. The data set is described as above. As to conditions: SD, n = 3. The method, then: as §1
The next data set concerns the target MBP.3. The description is as above. As to conditions: SD, n = 3. As to the method:
as §1

Another data set concerns the target MBP.2. The description is as above. As to conditions: n = 3. The method, then:
as §1

The nature of data set [1]: Isothermal titration calorimetry, LAO variants with L-lysine. As to conditions: ITC, 25 °C. The format is binding. An excerpt: buffer-lysine 1 - 3 - 300
Supporting Table 5. Protein and ligand concentrations for ITC measurements

Data set [2] can be described thus: CD thermal melt (Tmelt) of apo protein. The data set is classed as physicochemical. As to conditions: CD at 222 nm, 20 to 95 °C, 1 °C/min, apo protein 0.2 mg/mL, pH 7.4, error from fit uncertainty. The method, then:
To remove salts, protein samples were dialyzed overnight against 2 L of CD buffer (25 mM NaH2PO4/Na2HPO4, pH 7.4) using a 10 kDa molecular weight cutoff. Aggregated protein was removed by centrifugation at 15 000g for 5 min using a tabletop centrifuge (Eppendorf 5427R). Next, the protein concentration was adjusted to 0.3 mg/mL and verified photometrically. 200 μL of protein samples were mixed with either 100 μL of CD buffer or 100 μL of ligand solution (300 μM stocks of ligand solubilized in CD buffer) to reach a final concentration of 100 μM for the ligands and 0.2 mg/mL for the protein. CD spectra and thermal melt experiments were obtained on a JASCO J-1500 instrument using a glass cuvette with a 1 mm path length. For CD spectra, the following settings were used: wavelengths 240–190 nm, bandwidth 1 nm, response time 2 s, data pitch 0.1 nm, scanning speed 100 nm/min, and ten accumulations (for buffer controls only one accumulation was used). For Tmelt measurements, the following settings were used: wavelength of 222 nm, temperature range from 20 to 95 °C controlled by a Pelletier AWC100 (Julabo) using a slope of 1 °C/min, a bandwidth of 1 nm, and a response time of 2 s. Raw CD data were normalized by subtraction of the respective buffer data and subsequent conversion of the measured signal in millidegree to mean residue molar ellipticity. To obtain the apparent melting temperature T m, thermal melt data were fit using a sigmoidal equation according to Niklasson et al. The error plotted stems from the fit function uncertainty.

On the set-up of data set [3]: method as in previously published binding constants. As to conditions: wild type LAO; ref previously published binding constants; read-out: binding constant; cited from earlier work.
Data set [4] in a line: Isothermal titration calorimetry, PotF variants with putrescine. As to conditions: ITC, 25 °C. The data set is classed as binding. From the text: Protein Design ID Experimental Protein Ligand target repeat concentration concentration (µM) […]
Details of data set [5]: method as in previously published binding constants. As to conditions: wild type PotF; ref previously published binding constants; read-out: binding constant; cited from earlier work.

Like-named read-outs stand apart in the source and are kept apart here.

Sequence of PotF.3 (P31133 27-370 T94S/E108N/F129Y/N154D/S178A/V186I/K202N/S252A/S265A/F266Y/E331D/A339P): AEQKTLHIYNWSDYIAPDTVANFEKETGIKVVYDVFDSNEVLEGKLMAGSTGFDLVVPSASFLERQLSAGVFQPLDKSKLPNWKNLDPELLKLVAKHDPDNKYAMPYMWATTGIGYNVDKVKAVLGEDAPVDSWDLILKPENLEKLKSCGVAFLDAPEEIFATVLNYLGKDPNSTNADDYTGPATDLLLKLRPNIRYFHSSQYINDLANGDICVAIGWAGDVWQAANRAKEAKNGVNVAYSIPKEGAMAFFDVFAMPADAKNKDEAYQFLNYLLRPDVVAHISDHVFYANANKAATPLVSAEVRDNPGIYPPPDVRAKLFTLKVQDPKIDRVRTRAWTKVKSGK
Sequence of PotF.1 (P31133 other isoform, or with tags, fused parts or gaps with the stated changes): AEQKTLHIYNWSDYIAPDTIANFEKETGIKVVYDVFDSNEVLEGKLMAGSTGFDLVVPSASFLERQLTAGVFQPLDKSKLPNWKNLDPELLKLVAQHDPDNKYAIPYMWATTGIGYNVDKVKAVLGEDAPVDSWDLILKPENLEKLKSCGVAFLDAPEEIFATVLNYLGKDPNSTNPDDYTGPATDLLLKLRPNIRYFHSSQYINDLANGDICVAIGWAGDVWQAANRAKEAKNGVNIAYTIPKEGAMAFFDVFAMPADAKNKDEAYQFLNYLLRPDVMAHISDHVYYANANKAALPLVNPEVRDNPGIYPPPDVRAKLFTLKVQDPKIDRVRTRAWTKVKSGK

Regarding `O=C(O)c1ccc(C(=O)O)cc1` [terephthalic acid], the Kd on TphC.4 is 282 ± 39 nM; on TphC.1, 5750 ± 709 nM; on TphC.2, 627 ± 69 nM; at TphC.3, 716 ± 91 nM; on TphC.0, 1180 ± 250 nM.

Consider `NCCCC[C@H](N)C(=O)O` [L-lysine], for which the Kd on LAO.2 amounted to 612 ± 56 nM; on LAO.1, 2500 ± 211 nM; at LAO.3, 824 ± 18 nM; on LAO.0, 93 ± 35 nM; on LAO.4, 150 ± 21 nM.

For `NCCCCN` [putrescine], the Kd on PotF.4 is 103 ± 10 nM; on PotF.2, 42 ± 12 nM; on PotF.0, 42 ± 3 nM; on PotF.1, 479 ± 12 nM; at PotF.3, 101 ± 17 nM.

In the case of maltose, the Kd on MBP.1 was 1310 ± 293 nM; at MBP.4, 2960 ± 675 nM; on MBP.3, 450 ± 44 nM; at MBP.2 it was less than 10000 nM.

B1: LAO.0: wild type L-lysine/L-arginine/L-ornithine binding protein LAO, Salmonella typhimurium, used as control (protein, UniProt P02911 23-260, looked up)
Lysine/arginine/ornithine-bind …: ALPQTVRIGTDTTYAPFSSKDAKGEFIGFDIDLGNEMCKRMQVKCTWVASDFDALIPSLKAKKIDAIISSLSITDKRQQEIAFSDKLYAADSRLIAAKGSPIQPTLESLKGKHVGVLQGSTQEAYANDNWRTKGVDVVAYANQDLIYSDLTAGRLDAALQDEVAASEGFLKQPAGKEYAFAGPSVKDKKYFGDGTGVGLRKDDTELKAAFDKALTELRQDGTYDKMAKKYFDFNVYGD
Turning to B1, in data set [1], the “-TΔS” value turned out to be 3.56 ± 0.382 kcal/mol, the ΔG is -9.61 ± 0.22 kcal/mol and the ΔH is -13.2 ± 0.22 kcal/mol. Further, in data set [2], the “apparent T m” value amounted to 47 ± 0.1 °C. Moreover, the “apparent T m” value in data set [2] (listed as LAO) was 47 °C. The Kd in data set [3] was 232 ± 106 nM.

B2: PotF.0: wild type putrescine-binding protein PotF, Escherichia coli (strain K12), used as control (protein, UniProt P31133 27-370, looked up)
Putrescine-binding …: AEQKTLHIYNWSDYIAPDTVANFEKETGIKVVYDVFDSNEVLEGKLMAGSTGFDLVVPSASFLERQLTAGVFQPLDKSKLPEWKNLDPELLKLVAKHDPDNKFAMPYMWATTGIGYNVDKVKAVLGENAPVDSWDLILKPENLEKLKSCGVSFLDAPEEVFATVLNYLGKDPNSTKADDYTGPATDLLLKLRPNIRYFHSSQYINDLANGDICVAIGWAGDVWQASNRAKEAKNGVNVSFSIPKEGAMAFFDVFAMPADAKNKDEAYQFLNYLLRPDVVAHISDHVFYANANKAATPLVSAEVRENPGIYPPADVRAKLFTLKVQDPKIDRVRTRAWTKVKSGK
Regarding B2, the “apparent T m” value in [2] worked out at 63 ± 0.4 °C. The “apparent T m” value in data set [2] (listed as PotF) worked out at 63 °C. In [4], the “-TΔS” value is 11.2 ± 0.287 kcal/mol, the ΔG is -10.1 ± 0.048 kcal/mol and the ΔH was -21.2 ± 0.263 kcal/mol. Moreover, in [5], the Kd is 68 ± 40 nM.

Source of the values: article PMC12814167, “Optimizing Stability in Dynamic Small-Molecule Binding Proteins” (Journal of the American Chemical Society, 2025).
